Measurements: patent US20120201802A1, “METHOD FOR PRODUCING REDUCED COENZYME Q10, METHOD FOR STABILIZING SAME, AND COMPOSITION COMPRISING SAME” (Keneka Corporation, priority 2009, published 2012)

Assays:
[1] = Reduction of oxidized coenzyme Q10 in limonene (Example 2, Comparative Example 2); settings: after reaction, oxidized CoQ10 0.1 g + plant extract 1.0 g or compound 0.69 mmol, 85° C., 16 hr, nitrogen atmosphere
Method: While the present invention is explained in more detail in the following by referring to Examples, the present invention is not limited to those Examples alone. Moreover, the purity of reduced coenzyme Q10, the weight ratio of reduced coenzyme Q10/oxidized coenzyme Q10, and the like in the Examples were measured by the following HPLC analysis. […] To conveniently indicate the weight ratio of reduced coenzyme Q10 and oxidized coenzyme Q10 in the present Example, the ratio of reduced coenzyme Q10 to the total amount of coenzyme Q10 (total amount of oxidized coenzyme Q10 and reduced coenzyme Q10) is shown in percentage as a “weight ratio of reduced coenzyme Q10”. For example, “the weight ratio of reduced coenzyme Q10 is 20%” means that the weight ratio of reduced coenzyme Q10 and oxidized coenzyme Q10 is 20/80. • (HPLC analysis conditions) • column; SYMMETRY C18 (manufactured by Waters) 250 mm (length) 4.6 mm (inner diameter), • mobile phase; C2H5OH:CH3OH=4:3 (v:v), • detection wavelength; 210 nm, • flow rate; 1 ml/min, • retention time of reduced coenzyme Q10; 9.1 min, • retention time of oxidized coenzyme Q10; 13.3 min. […]

[2] = Reduction of oxidized coenzyme Q10 in Span 80/glycerol/Tween 80/MCT mixture (Example 3, Comparative Example 3); settings: after reaction, oxidized CoQ10 0.1 g + plant extract 1.0 g or compound 0.69 mmol, 80° C., 16 hr, nitrogen atmosphere
Method: (§1) While the present invention is explained in more detail in the following by referring to Examples, the present invention is not limited to those Examples alone. Moreover, the purity of reduced coenzyme Q10, the weight ratio of reduced coenzyme Q10/oxidized coenzyme Q10, and the like in the Examples were measured by the following HPLC analysis. […] To conveniently indicate the weight ratio of reduced coenzyme Q10 and oxidized coenzyme Q10 in the present Example, the ratio of reduced coenzyme Q10 to the total amount of coenzyme Q10 (total amount of oxidized coenzyme Q10 and reduced coenzyme Q10) is shown in percentage as a “weight ratio of reduced coenzyme Q10”. For example, “the weight ratio of reduced coenzyme Q10 is 20%” means that the weight ratio of reduced coenzyme Q10 and oxidized coenzyme Q10 is 20/80. • (HPLC analysis conditions) • column; SYMMETRY C18 (manufactured by Waters) 250 mm (length) 4.6 mm (inner diameter), • mobile phase; C2H5OH:CH3OH=4:3 (v:v), • detection wavelength; 210 nm, • flow rate; 1 ml/min, • retention time of reduced coenzyme Q10; 9.1 min, • retention time of oxidized coenzyme Q10; 13.3 min.
Oxidized coenzyme Q10 crystal (0.1 g) and a component derived from a naturally-occurring substance described in Table 3 (plant extract, 1.0 g, 10-fold weight) or a compound (0.69 mmol) were respectively added to a mixture of Span 80 (0.12 g), glycerol (0.09 g), Tween 80 (1.49 g) and MCT (0.43 g), and the mixture was stirred at 80° C. for 16 hr under a nitrogen atmosphere.

[3] = Reduction of oxidized coenzyme Q10 in 99% ethanol (Example 1, Comparative Example 1); settings: after reaction, oxidized CoQ10 0.1 g + plant extract 1.0 g (10-fold weight) or compound 0.69 mmol, 78° C., 16 hr, nitrogen atmosphere
Method: as §1
Oxidized coenzyme Q10 crystal (0.1 g) and a component derived from a naturally-occurring substance (plant extract, 1.0 g, 10-fold weight) described in Table 1 were respectively added to 99% ethanol (15 g), and the mixture was stirred at 78° C. for 16 hr under a nitrogen atmosphere.
Oxidized coenzyme Q10 crystal (0.1 g, 0.12 mmol) and the compound described in Table 1 (0.69 mmol) were respectively added to 99% ethanol (15 g), and the mixture was stirred at 78° C. for 16 hr under a nitrogen atmosphere.

Row | Molecule | weight ratio of reduced coenzyme Q10 [1] | weight ratio of reduced coenzyme Q10 [2] | weight ratio of reduced coenzyme Q10 [3]
1 | O=C1O[C@H]([C@@H](O)CO)C([O-])=C1O.[Na+] [L-sodium ascorbate] | 1% |  | 
2 | NC(=O)C1=CN([C@@H]2O[C@H](COP(=O)(O)OP(=O)(O)OC[C@H]3O[C@@H](n4cnc5c(N)ncnc54)[C@H](O)[C@@H]3O)[C@@H](O)[C@H]2O)C=CC1 [NADH] |  | 0% | 2%
3 | retinol acetate |  |  | 4%

Continued, values first:

Row | weight ratio of reduced coenzyme Q10 [1] | weight ratio of reduced coenzyme Q10 [2] | weight ratio of reduced coenzyme Q10 [3] | Molecule
4 | 1% |  |  | O=C(O)CCCC[C@@H](S)CCS [R-dihydrolipoic acid]
5 |  | 0% | 0% | C[N+](C)(C)CC(O)CC(=O)[O-] (stereo not shown) [carnitine]
6 |  | 3% | 4% | CC1=C(/C=C/C(C)=C/C=C/C(C)=C/C=O)C(C)(C)CCC1 [retinal]
7 |  | 0% |  | Cc1c(C)c2c(c(C)c1O)CC[C@@](C)(CCC[C@H](C)CCC[C@H](C)CCCC(C)C)O2 [α-tocopherol]
